PMC4713045 (Cancer research, 2015)
Where two headings read alike, the source gives them in different places.

Experiments:
[1] = system: sorafenib uptake in HEKa (OATs; SLC22A); assay: Inhibition of sorafenib uptake in HEKa by transporter inhibitors; type: cell-based, human; details: OAT inhibitors 100 µM, sorafenib 1 µM, 15 min
[2] = molecular target: T1, TAK1 (Homo sapiens, UniProt O43318); assay: KiNativ in situ kinome profiling in HEKa, TAK1; type: binding; details: intact HEKa, 1 hr treatment, clinically-achievable concentration
T1 sequence (O43318 1-606): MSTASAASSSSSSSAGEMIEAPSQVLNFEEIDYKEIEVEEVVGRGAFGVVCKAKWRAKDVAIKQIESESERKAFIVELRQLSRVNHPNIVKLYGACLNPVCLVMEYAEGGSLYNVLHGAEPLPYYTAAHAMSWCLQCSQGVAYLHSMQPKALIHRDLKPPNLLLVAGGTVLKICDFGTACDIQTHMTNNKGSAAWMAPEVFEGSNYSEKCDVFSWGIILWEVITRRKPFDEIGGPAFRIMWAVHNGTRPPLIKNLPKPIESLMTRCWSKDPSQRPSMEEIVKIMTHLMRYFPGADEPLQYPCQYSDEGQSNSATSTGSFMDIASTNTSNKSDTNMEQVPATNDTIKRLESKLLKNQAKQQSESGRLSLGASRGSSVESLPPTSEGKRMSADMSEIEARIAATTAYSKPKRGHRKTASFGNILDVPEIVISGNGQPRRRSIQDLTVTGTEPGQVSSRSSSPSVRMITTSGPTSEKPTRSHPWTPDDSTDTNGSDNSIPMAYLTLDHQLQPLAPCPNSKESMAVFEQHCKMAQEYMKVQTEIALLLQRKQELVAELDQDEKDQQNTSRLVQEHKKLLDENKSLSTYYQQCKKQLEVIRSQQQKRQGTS

[3] = system: Human primary keratinocytes (HEKa); assay: HEKa cell viability
[4] = system: HEKa; assay: In vitro transport assay: intracellular drug accumulation in HEKa; type: in vitro ADME, human; details: for intracellular accumulation / transport in HEKa (in words): kinase inhibitors 1 µM, 5 min
[5] = system: sorafenib accumulation in MPEK; assay: Inhibition of sorafenib accumulation in MPEK by probenecid; type: cell-based, mouse; details: probenecid 100 µM, sorafenib 1 µM, 15 min
[6] = system: A549, 7860, HepG2 and CHRF288-11 cell lines; assay: In vitro antitumor efficacy of sorafenib with or without probenecid; type: cell-based, human; details: probenecid 500 µM, sorafenib 0.1 – 100 µM, 72 hours
[7] = cited from earlier work
[8] = system: hair follicle growth in mice after depilation; assay: Wax-depilation hair follicle regrowth study; type: in vivo, C57BL6 mice; details: twice daily oral
[9] = Plasma pharmacokinetic study of sorafenib; type: in vivo, C57BL6 mice; details: sorafenib 60 mg/kg oral, single agent, 0 to 6 hours

SMILES: COc1cc(CC(=O)O)ccc1O [homovanillic acid]
- sensitivity of sorafenib uptake to inhibitor [1]: sensitivity of sorafenib uptake

SMILES: CCN(CC)CCNC(=O)c1c(C)[nH]c(/C=C2\C(=O)Nc3ccc(F)cc32)c1C [sunitinib]
- affinity for TAK1 in HEKa by in situ kinome profiling (in words) [2]: high affinity
- cell viability / cytotoxicity against HEKa (in words) [3]: induces cytotoxicity against HEKa

SMILES: Cc1ccc(NC(=O)c2ccc(CN3CCN(C)CC3)cc2)cc1Nc1nccc(-c2cccnc2)n1 [imatinib]
- cell viability / cytotoxicity against HEKa (in words) ([3]; HEKa, 72 h): not sensitive

SMILES: CNC(=O)c1cc(Oc2ccc(NC(=O)Nc3ccc(Cl)c(C(F)(F)F)c3)cc2)cc[n+]1[O-] [sorafenib N-oxide]
- intracellular accumulation / transport in HEKa (in words) [4]: temperature- and time-dependent transport
- cell viability / cytotoxicity against HEKa (in words) ([3]; HEKa, 72 h): cytotoxicity against HEKa

SMILES: CCCN(CCC)S(=O)(=O)c1ccc(C(=O)O)cc1 [probenecid]
- sensitivity of sorafenib uptake to inhibitor [1]: sensitivity of sorafenib uptake
- sensitivity of sorafenib accumulation to probenecid [5]: sensitive to probenecid
- influence of probenecid on cytotoxic effects of sorafenib [6]: did not antagonize the cytotoxic effects of sorafenib

SMILES: COc1cc(O)c2c(c1)/C=C/C[C@H](O)[C@H](O)C(=O)/C=C\C[C@H](C)OC2=O [(5z)-7-oxozeaenol]
- cell viability / cytotoxicity against HEKa (in words) ([3]; HEKa, 72 h): dose-dependently reduced cell viability

SMILES: C[N+]1(C)CCOC(O)(c2ccc(-c3ccc(C4(O)C[N+](C)(C)CCO4)cc3)cc2)C1.[Br-].[Br-] (centres unmarked) [hemicholinum-3]
- sensitivity of sorafenib uptake to inhibitor [1]: sensitivity of sorafenib uptake

SMILES: Cc1nc(Nc2ncc(C(=O)Nc3c(C)cccc3Cl)s2)cc(N2CCN(CCO)CC2)n1 [dasatinib]
- affinity for TAK1 in HEKa by in situ kinome profiling (in words) [2]: low affinity

SMILES: CNC(=O)c1cc(Oc2ccc(NC(=O)Nc3ccc(Cl)c(C(F)(F)F)c3)cc2)ccn1 [sorafenib]
- maximum velocity (Vmax) of uptake ([4]; HEKa uptake): 20,900 pmol/5min/mg protein
- intracellular accumulation / transport in HEKa (in words) [4]: highly accumulates
- Km ([4]; read-out: Michaelis-Menten constant (Km) of uptake, HEKa uptake): 7 µM
- permeability (in words) [7]: poorly permeable
- hair follicle histology (day 14, H&E) ([8]; sorafenib 60 mg/kg): reduced melanin and a gross disruption in morphology
- hair growth one week after depilation ([8]; sorafenib 60 mg/kg): hair growth was delayed
- hair growth and pigmentation at two weeks ([8]; sorafenib 60 mg/kg or imatinib 100 mg/kg): hair was less dense and lacked pigmentation
- area under the plasma concentration-time curve (mean ± SEM) [9]: 32500 ± 10900 ng·h/mL
